Source: patent publication US9358191B2, “Deodorant composition” (priority 2002, dated 2016)

Assay: Deodorizing effect on malodor gas, closed circulation system
Settings: 1 mL on absorbent cotton, 2 hours of working
Protocol: Into a 4 L odorless bag, 4 L of air was included by means of an air pump. Each malodor gas (ammonia, trimethylamine, hydrogen sulfide, or methyl mercaptan) was injected thereinto by an injection syringe to regulate a gas concentration. The bag was set at a test apparatus of closed circulation system fitted with an air pump and the air pump was worked at an air amount of about 1000 mL/minute. One milliliter of the above deodorant composition was supported on an absorbent cotton (0.2 g) and the cotton was set at the discharging side of the air pump. After 2 hours of working, the remaining amount of the malodor gas in the system was measured using a dedicated gas detecting tube (Gastech Corporation) and a deodorization rate was calculated according to the following expression.
As a comparative example, an absorbent cotton impregnated with 1 mL of a 20 mM aqueous solution of gallic acid was set at the discharging side of the air pump, instead of the absorbent cotton on which the above deodorant composition was supported. Then, the test was conducted similarly and the deodorization rate was calculated.
Deodorization rate (%)=100×{1−(A/B)}
In the above expression, A means the measured concentration of the malodor components and B means the concentration of the malodor components measured in the control. The control is the case that an absorbent cotton was impregnated with 1 mL of water instead of 1 mL of the above deodorant composition.

Compound `O=C(O)c1cc(O)c(O)c(O)c1` [Gallic acid aqueous solution, gallic acid] has a Deodorization rate (Ammonia, initial concentration 60 ppm) of 85.0%, a Deodorization rate (Hydrogen sulfide, initial concentration 120 ppm) of 5.0% and a Deodorization rate (Methyl mercaptan, initial concentration 100 ppm) of 0%. It also gave a Deodorization rate (Trimethylamine, initial concentration 130 ppm) of 70.0%.
